Reference: patent US20260373266A1, “PROTEIN DEGRADERS AND USES THEREOF” (KYMERA THERAPEUTICS, INC., priority 2022, published 2026)

Biological target: T1, DCAF1 WD40 domain (residues 1077-1390) (Homo sapiens, UniProt Q9Y4B6)
T1 construct: DCAF1 WD40 domain (residues 1077-1390)
Assay: DCAF1 binding assay by SPR (Biacore 8K+), DCAF1-3 KD
Settings: 25 °C, read-out: DCAF1-3 SPR (KD)

T1 sequence (Q9Y4B6 1077-1390): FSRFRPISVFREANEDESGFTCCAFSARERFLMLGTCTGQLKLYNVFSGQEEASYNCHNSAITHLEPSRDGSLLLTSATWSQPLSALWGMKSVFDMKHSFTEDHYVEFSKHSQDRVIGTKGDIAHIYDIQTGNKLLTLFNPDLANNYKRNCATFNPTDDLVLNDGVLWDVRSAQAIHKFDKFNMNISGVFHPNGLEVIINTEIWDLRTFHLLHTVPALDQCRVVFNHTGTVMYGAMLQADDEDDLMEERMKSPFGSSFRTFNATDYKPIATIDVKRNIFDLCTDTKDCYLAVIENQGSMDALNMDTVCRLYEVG

Row | SMILES | Kd [µM]
1 | NC(=O)C[C@H](NC(=O)c1c[nH]nc1-c1ccccn1)c1cccc(Cl)c1 [I-202] | > 200
2 | COCCc1ccc(-c2[nH]ncc2C(=O)N[C@@H](CC(N)=O)c2cccc(Cl)c2)c(F)c1 [I-511] | < 10
3 | NC(=O)OCc1cccc(N2CCC[C@H]3[C@@H]2CCN3c2cc(N3CCCCC3)ccn2)c1 [I-954] | < 10
4 | CCCCCCC[C@@H]1CCCN(c2ccnc(N3CC[C@@H]4[C@H]3CCCN4c3cccc(F)c3)c2)C1 [I-726] | > 200
5 | O=C(N[C@H](c1cccc(Cl)c1)[C@@H]1CCCNC1=O)c1c[nH]nc1-c1ccccc1F [I-195] | > 200
6 | Fc1cccc(N2CCCC(C3(c4cc(N5CCOCC5)ccn4)CC3(F)F)C2)c1 (stereo not drawn) [I-261] | > 200
7 | O=CNc1ccc(N2CCC[C@@H]3[C@H]2CCN3c2cc(N3CCCCC3)ccn2)cc1F [I-761] | > 200
8 | c1cnc2ccc(N3CCC[C@@H](Nc4cc(N5CCOCC5)ncn4)C3)cc2c1 [I-400] | > 200
9 | c1cn(Cc2ccc(N3CCC[C@@H](Nc4cc(N5CCOCC5)ccn4)C3)cc2)cn1 [I-692] | 100 to 200
10 | NC(=O)C[C@H](NC(=O)c1cn[nH]c1Cc1ccccc1)c1cccc(Cl)c1 [I-543] | < 10
11 | Fc1cccc(N2CCC[C@@H](Oc3cc(N4CCOCC4)ccn3)C2)c1 [I-81] | > 200
12 | Cn1ncc(C(=O)N[C@@H](CC(N)=O)c2cccc(Cl)c2)c1-c1ccccc1F [I-172] | > 200
13 | Fc1cccc(N2CCC[C@H]3[C@@H]2CCN3c2cc(N3CC4CC(C4)C3)ccn2)c1 [I-624] | > 200
14 | Nc1ccc(N2CCC[C@H]3[C@@H]2CCN3c2cc(N3CC4CC(C4)C3)ccn2)cc1F [I-734] | 10 to 100
15 | O=C1NCCN1Cc1cccc(N2CCC[C@@H]3[C@H]2CCN3c2cc(N3CCCCC3)ccn2)c1 [I-959] | 10 to 100
16 | COc1c(N[C@@H]2CCCN(c3cccc(F)c3)C2)cncc1N1CCOCC1 [I-544] | 100 to 200
17 | C=CC(=O)N1CC(c2n[nH]cc2C(=O)N[C@@H](CC(N)=O)c2cccc(Cl)c2)C1 [I-455] | > 200
18 | Fc1cccc(N2[C@H]3CCC[C@@H]2[C@H](Nc2nccc(N4CCOCC4)n2)CC3)c1 (stereo in doubt) [I-322] | > 200
19 | CC(c1cc(N2CCOCC2)ccn1)(C1CCCN(c2cccc(F)c2)C1)C(F)(F)F (stereo not drawn) [I-263] | > 200
20 | Fc1cccc(N2CCC[C@@H](Nc3cc(N4C[C@@H]5C[C@H]4CO5)ncn3)C2)c1 [I-312] | > 200
21 | NC(=O)C[C@H](NC(=O)c1c[nH]nc1-c1ccccc1Cl)c1cccc(Cl)c1 [I-210] | > 200

Row | SMILES | Kd [µM]
22 | NC(=O)C[C@](CO)(NC(=O)c1c[nH]nc1-c1ccccc1F)c1cccc(Cl)c1 [I-253] | > 200
23 | C=CC(=O)NC1CC2(CCN(c3ccnc(N[C@@H]4CCCN(c5cccc(F)c5)C4)c3)CC2)C1 [I-652] | < 10
24 | Cc1n[nH]cc1C(=O)N[C@@H](CC(N)=O)c1cccc(Cl)c1 [I-107] | > 200
25 | C[C@H]1[C@@H](O)CCCN1c1ccnc(N2CC[C@@H]3[C@H]2CCCN3c2cccc(F)c2)c1 [I-833] | < 10
26 | Cc1c(F)ccc(F)c1-c1[nH]ncc1C(=O)N[C@@H](CC(=O)N1CC(O)C1)c1cccc(Cl)c1 [I-877] | < 10
27 | O=C(N[C@H](c1cccc(Cl)c1)[C@H]1CCNC1=O)c1c[nH]nc1-c1ccccc1F [I-192] | > 200
28 | Fc1cccc(N2CCC[C@@H](N(Cc3ccccc3)c3nccc(N4CCOCC4)n3)C2)c1 [I-34] | > 200
29 | c1ccc([C@H]2CCC[C@@H](Nc3cc(N4CCCCC4)ccn3)C2)cc1 [I-754] | 10 to 100
30 | NC(=O)[C@@H]1[C@H](Nc2cc(N3CCOCC3)ccn2)CCCN1c1cccc(F)c1 [I-278] | > 200
31 | Cc1c(F)ccc(F)c1-c1[nH]ncc1C(=O)N[C@@H](CC(=O)N1CC(N(C)C)C1)c1cccc(Cl)c1 [I-878] | < 10
32 | Fc1cccc(N2CCC[C@@H](Nc3ccnc(N4CCOCC4)n3)C2)c1 [I-321] | > 200
33 | C=CC(=O)N1CCC(c2[nH]ncc2C(=O)N[C@H](CC(N)=O)c2cccc(Cl)c2)CC1 [I-535] | 100 to 200
34 | Fc1cccc(N2CCC[C@@H](Nc3cc(N4CCOCC4)ncn3)C2)c1 [I-1] | 100 to 200
35 | C=CC(=O)N(C)C1CC(N(C)c2ccnc(N[C@@H]3CCCN(c4cccc(F)c4)C3)c2)C1 (stereo partly drawn) [I-463] | > 200
36 | CN1CCN(CC2CCN(c3ccnc(N4CC[C@@H]5[C@H]4CCCN5c4cccc(F)c4)c3)CC2)CC1 [I-815] | < 10
37 | C=C1CCCN(c2ccnc(N[C@@H]3CCCN(c4cccc(F)c4)C3)c2)C1=O [I-461] | > 200
38 | O=S1(=O)[C@H](Nc2cc(N3CCOCC3)ccn2)CCCN1c1cccc(F)c1 [I-282] | > 200
39 | c1ccc2c(N3CCC[C@@H](Nc4cc(N5CCOCC5)ccn4)C3)nccc2c1 [I-62] | > 200
40 | NC(=O)C[C@H](NC(=O)c1n[nH]nc1-c1ncccc1F)c1cccc(Cl)c1 [I-201] | > 200
41 | COCCOCCOCC[C@@H]1CN(c2cc(N3CCCCC3)ccn2)[C@H]2CCCN(c3cccc(F)c3)[C@@H]12 [I-950] | 10 to 100
42 | CCN(c1cc(N2CCOCC2)ncn1)[C@@H]1CCCN(c2cccc(F)c2)C1 [I-386] | > 200

Row | SMILES | Kd [µM]
43 | COC(=O)c1cc(N2CCC[C@@H](Nc3cc(N4CCOCC4)ccn3)C2)cc2c1OCO2 [I-779] | > 200
44 | NCc1cccc(N2CCC[C@@H](Nc3cc(N4CCOCC4)ccn3)C2)c1 [I-866] | > 200
45 | NC(=O)C[C@H](NC(=O)c1cn[nH]c1-c1ccccc1F)c1ccc(C(N)=O)cc1 [I-354] | > 200
46 | NCCNc1cnc(N2CCCCC2)nc1N[C@@H]1CCCN(c2cccc(F)c2)C1 [I-1014] | 10 to 100
47 | Cc1ccc(Cl)cc1[C@@H](CC(N)=O)NC(=O)c1cn[nH]c1-c1ccccc1F [I-584] | 10 to 100
48 | Fc1cccc(N2CCC[C@H]3[C@@H]2CCCN3c2cc(N3CCCCC3)ccn2)c1 [I-720] | < 10
49 | NC(=O)C[C@H](NC(=O)C1=C(c2c(F)cccc2F)CN(Cc2ccccc2)C1)c1cccc(Cl)c1 [I-587] | 10 to 100
50 | O=C(O)C1(c2cccc(N3CCC[C@@H](Nc4cc(N5CCOCC5)ccn4)C3)c2)CCCC1 [I-697] | 10 to 100
51 | COc1ncc2cc[nH]c2c1N1CCC[C@@H](Nc2cc(N3CCOCC3)ccn2)C1 [I-859] | 10 to 100
52 | c1cc2cc(N3CCC[C@@H](Nc4nccc(N5CCOCC5)n4)C3)ccc2cn1 [I-33] | > 200
53 | c1cc2ccc(N3CCC[C@@H](Nc4cc(N5CCOCC5)ncn4)C3)cc2cn1 [I-402] | > 200
54 | C=CC(=O)NCC1CCCN(c2ccnc(N[C@@H]3CCCN(c4cccc(F)c4)C3)c2)C1 (stereo partly drawn) [I-634] | 10 to 100
55 | CN(c1ccnc(N[C@@H]2CCCN(c3cccc(F)c3)C2)c1)C1CCCC1 [I-555] | 10 to 100
56 | NCc1ccc(N2CCC[C@@H](Nc3cc(N4CCOCC4)ccn3)C2)cc1 [I-868] | < 10
57 | CS(=O)(=O)CN(c1cc(N2CCOCC2)ccn1)[C@@H]1CCCN(c2cccc(F)c2)C1 [I-258] | > 200
58 | Cc1c(F)ccc(F)c1-c1c(C(=O)N[C@@H](CC(N)=O)c2cccc(Cl)c2)cn(C)c1C(=O)c1ccc(OCCOCCOCCOCCN)cc1 [I-1024] | < 10
59 | Cc1nn(CC(F)(F)F)cc1N1CCC[C@@H](Nc2cc(N3CCOCC3)ccn2)C1 [I-422] | > 200
60 | O=C(Nc1ccc(F)c(Cl)c1)C1CCN(c2ccnc(-c3ccccc3)n2)CC1 [I-21] | > 200
61 | Cc1c(F)ccc(F)c1-c1c(C(=O)N[C@@H](CC(N)=O)c2cccc(Cl)c2)c[nH]c1C(=O)COCCOCCOCCOCCOCCN [I-809] | < 10
62 | NC(=O)C[C@H](NC(=O)c1c[nH]nc1-c1cc(F)ccc1F)c1cccc(Cl)c1 [I-267] | > 200
63 | c1ccc2cc(N3CCC[C@@H](Nc4nccc(N5CCOCC5)n4)C3)ccc2c1 [I-32] | > 200

Row | SMILES | Kd [µM]
64 | Fc1cccc(N2CCCC(N3CCc4c(N5CC6CC(C6)C5)ccnc43)C2)c1 (stereo not drawn) [I-790] | < 10
65 | OC[C@H]1C[C@@H](Nc2cc(N3CCCCC3)ccn2)CN(c2cccc(F)c2)C1 [I-936] | 10 to 100
66 | Cc1cccc(N2CCC[C@@H]3[C@H]2CCN3c2cc(N3CC4CC(C4)C3)ccn2)c1 [I-706] | < 10
67 | NCCOCCOCCOCCOCCOCCOCC(=O)c1[nH]cc(C(=O)N[C@@H](CC(N)=O)c2cccc(Cl)c2)c1-c1ccccc1F [I-676] | < 10
68 | c1ccc(-c2nc3cccc(N4CCC[C@@H](Nc5cc(N6CCOCC6)ccn5)C4)c3o2)cc1 [I-685] | > 200
69 | Cn1nnnc1-c1ccc(F)c(-c2n[nH]cc2C(=O)N[C@@H](CC(N)=O)c2cccc(Cl)c2)c1 [I-268] | > 200
70 | Cc1ccc(N2CCOCC2)cc1N[C@@H]1CCCN(c2cccc(F)c2)C1 [I-70] | > 200
71 | C=CC(=O)NCCCCC1CCN(c2ccnc(N[C@@H]3CCCN(c4cccc(F)c4)C3)c2)CC1 [I-756] | 10 to 100
72 | C=CC(=O)N1CCC(c2n[nH]cc2C(=O)N[C@@H](CC(N)=O)c2cccc(Cl)c2)=N1 [I-471] | > 200
73 | NC(=O)C[C@H](NC(=O)c1cn[nH]c1-c1cc(CC(F)F)ccc1F)c1cccc(Cl)c1 [I-251] | > 200
74 | c1cc(N2CCC[C@@H](Nc3cc(N4CCOCC4)ncn3)C2)c2cnccc2c1 [I-395] | > 200
75 | NC(=O)C[C@H](NC(=O)c1cnn(Cc2ccncn2)c1-c1ccccc1F)c1cccc(Cl)c1 [I-154] | > 200
76 | Fc1cccc(N2CCC[C@@H]3[C@H]2CCN3c2cc(N3CC4CCC(C4)C3)ccn2)c1 [I-604] | < 10
77 | Nc1cc(N2CCOCC2)cc(N[C@@H]2CCCN(c3cccc(F)c3)C2)n1 [I-369] | > 200
78 | O=c1cc(N2CCOCC2)cc(N[C@@H]2CCCN(c3cccc(F)c3)C2)[nH]1 [I-303] | > 200
79 | CCC(=O)N1C[C@H](c2ccc(Br)cc2)[C@@H]1C(=O)Nc1cccc2cccnc12 [I-518] | > 200
80 | COc1ccc([C@H](CC(N)=O)NC(=O)c2cn[nH]c2-c2ccccc2F)cc1 [I-136] | 100 to 200
81 | OCc1cnc2ccc(N3CCC[C@@H](Nc4cc(N5CCOCC5)ccn4)C3)nn12 [I-696] | 10 to 100
82 | C=CC(=O)N1CC[C@H](N(C)c2ccnc(N[C@@H]3CCCN(c4cccc(F)c4)C3)c2)C1 [I-477] | > 200
83 | NC(=O)C[C@H](NC(=O)[C@@H]1CC[C@](O)(c2ccccc2)C1)c1cccc(Cl)c1 [I-444] | > 200
84 | CCCN1CCN(c2ccnc(N[C@@H]3CCCN(c4cccc(F)c4)C3)n2)CC1 [I-317] | > 200
